Test results taken from ChEMBL document CHEMBL1139278 (2009).
Values after ≈ are worked out from the molar mass of the structure shown.

Key:
Assay type in all cases: functional
Haemophilus influenzae = assay: Antimicrobial activity against Haemophilus influenzae TH13 by NCCLS method
Enterococcus faecium = assay: Antimicrobial activity against vancomycin-resistant Enterococcus faecium KU1778 by NCCLS method
Staphylococcus aureus [1] = assay: Antimicrobial activity against methicillin-susceptible Staphylococcus aureus infected iv dosed mouse assessed as survival rate after 1 hr of infection
Streptococcus pneumoniae [2] = assay: Antimicrobial activity against penicillin-resistant Streptococcus pneumoniae KT2524 by NCCLS method
Moraxella catarrhalis = assay: Antimicrobial activity against Moraxella catarrhalis K1209 by NCCLS method
Streptococcus pneumoniae [3] = assay: Antimicrobial activity against penicillin-susceptible Streptococcus pneumoniae ATCC 49619 by NCCLS method
Staphylococcus aureus [4] = assay: Antimicrobial activity against methicillin-resistant Staphylococcus aureus KMP9
Staphylococcus aureus [5] = assay: Antimicrobial activity against methicillin-susceptible Staphylococcus aureus Smith by NCCLS method
Streptococcus pyogenes = assay: Antimicrobial activity against Streptococcus pyogenes ATCC 112344 by NCCLS method

Structure (SMILES)	MIC (Haemophilus influenzae) [µg/mL]	MIC (Enterococcus faecium) [µg/mL]	ED50 (Staphylococcus aureus [1]) [mg/kg]	MIC (Streptococcus pneumoniae [2]) [µg/mL]	MIC (Moraxella catarrhalis) [µg/mL]	MIC (Streptococcus pneumoniae [3]) [µg/mL]	MIC (Staphylococcus aureus [4]) [µg/mL]	MIC (Staphylococcus aureus [5]) [µg/mL]	MIC (Streptococcus pyogenes) [µg/mL]
CN[C@H](CC(C)C)C(=O)N[C@H]1C(=O)N[C@@H](CC(N)=O)C(=O)N[C@H]2C(=O)N[C@H]3C(=O)N[C@H](C(=O)N[C@H](C(=O)O)c4cc(O)cc(O)c4-c4cc3ccc4O)[C@H](O)c3ccc(c(Cl)c3)Oc3cc2cc(c3O[C@@H]2O[C@H](CO)[C@@H](O)[C@H](O)[C@H]2O[C@H]2C[C@](C)(N)[C@H](O)[C@H](C)O2)Oc2ccc(cc2Cl)[C@H]1O [VANCOMYCIN]	> 128	> 128	0.88	0.5 (≈ 0.345 µM)	64 (≈ 44.2 µM)	0.25 (≈ 0.173 µM)			
C=C[C@]1(C)C[C@@H](OC(=O)CN2CCN(C(=O)CCn3cnc4c(N5CC[C@H](CNC)C5)ncnc43)CC2)[C@]2(C)[C@H](C)CC[C@]3(CCC(=O)[C@@H]32)[C@@H](C)[C@@H]1O.Cl.Cl	0.5	0.5	0.83	0.063	0.125	0.125	2	0.25	0.032
C=C[C@]1(C)C[C@@H](OC(=O)CN2CCCN(C(=O)CCn3cnc4c(N5CCC(N)C5)ncnc43)CC2)[C@]2(C)[C@H](C)CC[C@]3(CCC(=O)[C@@H]32)[C@@H](C)[C@@H]1O.Cl.Cl (stereo not given in full)	4	0.25	2.51	0.063	0.25	0.063	1	0.5	0.032
C=C[C@]1(C)C[C@@H](OC(=O)CN2CCN(C(=O)CCn3cnc4c(N5CCC(CNC)C5)ncnc43)[C@@H](C)C2)[C@]2(C)[C@H](C)CC[C@]3(CCC(=O)[C@@H]32)[C@@H](C)[C@@H]1O.Cl.Cl (stereo not given in full)	2	0.25	1.2	0.032	0.125	0.063	1	0.125	0.063
C=C[C@]1(C)C[C@@H](OC(=O)CN2CCN(C(=O)CCn3cnc4c(N5CCC(N)C5)ncnc43)C(C)C2)[C@]2(C)[C@H](C)CC[C@]3(CCC(=O)[C@@H]32)[C@@H](C)[C@@H]1O.Cl.Cl (stereo not given in full)	2	0.125	1.39	0.032	0.125	0.032	0.25	0.25	0.032
C=C[C@]1(C)C[C@@H](OC(=O)CN2CCN(C(=O)CCn3cnc4c(N5CCC(N)C5)ncnc43)C[C@H]2C)[C@]2(C)[C@H](C)CC[C@]3(CCC(=O)[C@@H]32)[C@@H](C)[C@@H]1O.Cl.Cl (stereo not given in full)	2	0.063	1.42	0.063	0.063	0.032	0.5	0.25	0.016
C=C[C@]1(C)C[C@@H](OC(=O)CN2CCN(C(=O)CCn3cnc4c(N5CCC(CNC)C5)ncnc43)CC2)[C@]2(C)[C@H](C)CC[C@]3(CCC(=O)[C@@H]32)[C@@H](C)[C@@H]1O.Cl.Cl (stereo not given in full)	4	1	1.1	0.125	0.5	0.125	2	0.25	0.032
C=C[C@]1(C)C[C@@H](OC(=O)CN2CCN(C(=O)CCn3cnc4c(N5CC[C@H](CNC)C5)ncnc43)[C@@H](C)C2)[C@]2(C)[C@H](C)CC[C@]3(CCC(=O)[C@@H]32)[C@@H](C)[C@@H]1O.Cl.Cl	2	0.25	1.1	0.063	0.125	0.063	0.5	0.25	0.032
C=C[C@]1(C)C[C@@H](OC(=O)CN2CCN(C(=O)CCn3cnc4c(N5CCC(CN)C5)ncnc43)CC2)[C@]2(C)[C@H](C)CC[C@]3(CCC(=O)[C@@H]32)[C@@H](C)[C@@H]1O.Cl.Cl (stereo not given in full)	4	1	1.21	0.125	0.5	0.063	2	0.25	0.032
C=C[C@]1(C)C[C@@H](OC(=O)CN2CCN(C(=O)CCn3cnc4c(N5CCC(N)C5)ncnc43)[C@@H](C)C2)[C@]2(C)[C@H](C)CC[C@]3(CCC(=O)[C@@H]32)[C@@H](C)[C@@H]1O.Cl.Cl (stereo not given in full)	2	0.125	1.47	0.063	0.125	0.032	0.25	0.125	0.032
C=C[C@]1(C)C[C@@H](OC(=O)CN2CCN(C(=O)CCn3cnc4c(N5CC[C@H](N)C5)ncnc43)[C@@H](C)C2)[C@]2(C)[C@H](C)CC[C@]3(CCC(=O)[C@@H]32)[C@@H](C)[C@@H]1O.Cl.Cl	4	0.125	1.1	0.032	0.125	0.032	0.5	0.25	0.016
C=C[C@]1(C)C[C@@H](OC(=O)CN2CCN(C(=O)CCn3cnc4c(N5CCC(N)C5)ncnc43)[C@H](C)C2)[C@]2(C)[C@H](C)CC[C@]3(CCC(=O)[C@@H]32)[C@@H](C)[C@@H]1O.Cl.Cl (stereo not given in full)	8	0.25	2.21	0.125	0.25	0.125	0.5	0.25	0.063
C=C[C@]1(C)C[C@@H](OC(=O)CN2CC(C)N(C(=O)CCn3cnc4c(N5CCC(N)C5)ncnc43)CC2C)[C@]2(C)[C@H](C)CC[C@]3(CCC(=O)[C@@H]32)[C@@H](C)[C@@H]1O.Cl.Cl (stereo not given in full)	4	0.125	3.13	0.063	0.125	0.063	0.25	0.25	0.032
C=C[C@]1(C)C[C@@H](OC(=O)CN2CCN(C(=O)CCn3cnc4c(N5CCNCC5)ncnc43)CC2)[C@]2(C)[C@H](C)CC[C@]3(CCC(=O)[C@@H]32)[C@@H](C)[C@@H]1O.Cl.Cl	2	0.063	1.65	0.063	0.063	0.063	0.25	0.125	0.032
C=C[C@]1(C)C[C@@H](OC(=O)CN2CC(C)N(C(=O)CCn3cnc4c(N5CCC(N)C5)ncnc43)C(C)C2)[C@]2(C)[C@H](C)CC[C@]3(CCC(=O)[C@@H]32)[C@@H](C)[C@@H]1O.Cl.Cl (stereo not given in full)	4	0.063	> 3.13	0.016	0.063	0.016	0.125	0.125	0.016
C=C[C@]1(C)C[C@@H](OC(=O)CN2CCN(C(=O)CCn3cnc4c(N5CCC(NC)C5)ncnc43)CC2)[C@]2(C)[C@H](C)CC[C@]3(CCC(=O)[C@@H]32)[C@@H](C)[C@@H]1O.Cl (stereo not given in full)	4	0.25	1.3	0.125	0.25	0.063	1	0.25	0.032
C=C[C@]1(C)C[C@@H](OC(=O)CN2CCN(C(=O)CCn3cnc4c(N5CCC(N)C5)ncnc43)CC2C)[C@]2(C)[C@H](C)CC[C@]3(CCC(=O)[C@@H]32)[C@@H](C)[C@@H]1O.Cl.Cl (stereo not given in full)	2	0.125	1.42	0.063	0.125	0.063	0.5	0.25	0.032
C=C[C@]1(C)C[C@@H](OC(=O)CN2CCN(C(=O)CCn3cnc4c(N5CCC(CN)CC5)ncnc43)CC2)[C@]2(C)[C@H](C)CC[C@]3(CCC(=O)[C@@H]32)[C@@H](C)[C@@H]1O.Cl.Cl	2	0.25	1.51	0.125	0.125	0.125	1	0.25	0.032
C=C[C@]1(C)C[C@@H](OC(=O)CN2CCN(C(=O)CCn3cnc4c(N5CCC(NCC)C5)ncnc43)CC2)[C@]2(C)[C@H](C)CC[C@]3(CCC(=O)[C@@H]32)[C@@H](C)[C@@H]1O.Cl.Cl (stereo not given in full)	4	0.25	2.21	0.125	0.125	0.125	0.5	0.25	0.063
C=C[C@]1(C)C[C@@H](OC(=O)CN2CCN(C(=O)CCn3cnc4c(N5CCC(N)C5)ncnc43)CC2)[C@]2(C)[C@H](C)CC[C@]3(CCC(=O)[C@@H]32)[C@@H](C)[C@@H]1O.Cl.Cl (stereo not given in full)	4	0.5	0.8	0.063	0.25	0.063	1	0.25	0.032
C=C[C@]1(C)C[C@@H](OC(=O)CN2CCN(C(=O)CCn3cnc4c(N5CCC(N(C)C)C5)ncnc43)CC2)[C@]2(C)[C@H](C)CC[C@]3(CCC(=O)[C@@H]32)[C@@H](C)[C@@H]1O.Cl.Cl (stereo not given in full)	4	0.125	2.94	0.063	0.125	0.125	0.25	0.25	0.063
C=C[C@]1(C)C[C@@H](OC(=O)CN2CCN(C(=O)CCn3cnc4c(N5CCC(N)C5)ncnc43)C[C@@H]2C)[C@]2(C)[C@H](C)CC[C@]3(CCC(=O)[C@@H]32)[C@@H](C)[C@@H]1O.Cl (stereo not given in full)	4	0.125	1.28	0.063	0.125	0.125	0.5	0.25	0.032
